Results on nine molecules are retold here after ChEMBL document CHEMBL1128923, “A simple synthesis of biaryl phospholipase A2 inhibitors: Probing hydrophobic effects” (Bioorg Med Chem Lett, 1996).

In assay [1] the target is T1, Phospholipase A2, membrane associated (Homo sapiens) (UniProt P14555).
T1 sequence (whole entry): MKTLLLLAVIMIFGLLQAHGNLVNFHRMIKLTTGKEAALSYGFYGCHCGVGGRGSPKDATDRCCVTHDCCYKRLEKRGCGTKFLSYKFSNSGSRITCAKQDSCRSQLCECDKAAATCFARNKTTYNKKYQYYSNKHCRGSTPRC
Put plainly: Compound was evaluated for inhibition of phospholipase A2 (PLA2) isolated from human platelets at a concentration of 10 uM.

In assay [2] the target is T1, Phospholipase A2, membrane associated (Homo sapiens). The assay is described as follows: Compound was evaluated for inhibition of phospholipase A2 (PLA2) isolated from human platelets at a concentration of 100 uM.
The target in assay [3] is T2, Phospholipase A2, membrane associated (Homo sapiens, UniProt P14555).
T2 sequence (P14555 whole entry): T1 sequence (whole entry)
Put plainly: Compound was evaluated for inhibition of human platelet phospholipase A2 (HP-PLA2).

The subject of the next assay is Mus musculus. Put plainly: Effective dose to reduce mouse ear edema in a phorbol ester induced inflammation assay. In kind it is functional.

In the case of `O=C(O)c1ccccc1-c1ccccc1C(=O)NCCc1c[nH]c2ccc(O)cc12`, the inhibition in assay [1] and in assay [2] was 0% each time.
Regarding `CC1(C)CCC(C)(C)c2cc(NC(=O)c3ccccc3-c3ccccc3C(=O)O)ccc21`, the inhibition in assay [1] is 14%; in assay [2], 35%.
The corresponding values for `CC(C)c1ccc2c(c1)CC[C@H]1C[C@](C)(CNC(=O)c3ccccc3-c3ccccc3C(=O)O)CC[C@]21C` are 6% and 63%.
The corresponding values for `O=C(O)c1ccccc1-c1ccccc1C(=O)Nc1ccc2ccccc2c1` are 2% and 8%.
In turn, `CC1=C(/C=C/C(C)=C/C=C(/C(C)=C/C(=O)O)c2cccc(C(=O)O)c2)C(C)(C)CCC1` gave an IC50 in assay [3] of 40 µM. In the assay with Mus musculus, this molecule gave an ED50 of 160 ug ear-1.
As for `O=C(O)c1ccccc1-c1ccccc1C(=O)NC1CCCCCCC1`, the inhibition in assay [1] amounted to 2%; in assay [2] it was 15%.
Regarding `CCCCCCCCCCc1ccc(NC(=O)c2ccccc2-c2ccccc2C(=O)O)cc1`, the results for the inhibition in assay [1] and in assay [2] were 26% and 92%, respectively.
The corresponding values for `CCCCCCCCCCOc1ccc(NC(=O)c2ccccc2-c2ccccc2C(=O)O)cc1OCC(=O)O` are 2% and 23%.
The corresponding values for `CCCCCCCCCCOc1ccc(NC(=O)c2ccccc2-c2ccccc2C(=O)O)cc1OCCCCCCCCCC` are 85% and 98%.

The term inhibition denotes the percentage by which the read-out fell short of the control. Read a low inhibition as a weak effect. The term IC50 denotes the concentration that inhibits the measured activity by half. Lower therefore signals higher potency.
